{
  "source": "patent US20110281834A1",
  "about": "“Pharmaceutical Formulations for Iontophoretic Delivery of a Corticosteroid” (priority 2008, published 2011)",
  "key": {"[1]": {"test": "Iontophoretic drug permeation through hairless rat skin in Franz diffusion cells", "type": "in vitro ADME", "protocol": "Full thickness abdominal skin freshly excised from sacrificed hairless rats was equilibrated in the receptor buffer and mounted on Franz diffusion cells (0.64 cm^2). The donor compartment (0.5 ml) contained corticosteroid in an appropriate buffer. […] For triamcinolone acetonide (TMCA), 3.5 mg/mL TMCA formulation (in 25% w/w PEG 400, 25% ETOH, 15% cremophor RH40, qs to 100% with citrate buffer pH 5.0) was used for the donor compartment. […] The receptor compartment for TMCA was citrate buffer with 20% ethanol. […] TMCA has no charge at pH 5 and was therefore delivered by anodal iontophoresis to utilize electroosmosis. […] For TMCA, the anode (Silver-Silver Chloride) was placed in the donor chamber along with drug solution and the cathode (Silver wire) was placed in the receptor chamber. Electric current (0.2 to 0.4 mA/cm^2) was applied using a custom current control device for up to 1 hr, after which experiments were either terminated or allowed to continue passively for various durations. Samples (0.3 ml) were taken from the receptor chamber at predetermined time points following iontophoresis and were replaced with the same amount of receptor buffer. The apparatus was maintained at 37° C. with constant stirring in both the donor and receptor compartments to maintain sink conditions. The samples were then analyzed by HPLC to measure drug permeation through skin. […] The mobile phase consisted of 75/25 ammonium acetate (5 mM) and acetonitrile. For TMCA, samples of receptor fluid (injection volume 20 uL, run time 8 min) were analyzed using the same HPLC system with a flow rate of 0.8 ml/min and UV detection at 237 nm. The mobile phase consisted of 70/30 methanol and water. […] Control passive experiments were conducted in the same way except for the application of electric current. Data were expressed as means±standard deviations. All experiments were performed in at least triplicate.\nSamples were removed periodically from the receptor and analyzed by HPLC.\nSamples were measured periodically from the receptor and analyzed by HPLC over 24 hrs.\n(§1) The effect of iontophoresis on the intradermal and transdermal permeation of TMCA using hairless rat skin in vitro was investigated using methods previously described. In addition, the amount of drug deposited in the stratum corneum and underlying skin after iontophoresis was quantified in vivo using tape stripping and skin extraction methods described previously. TMCA (3.5 mg/ml) was formulated in 15% cremophor RH40, 25% PEG 400 and 25% ethanol (95%), in citrate buffer pH 5.0. Anodal iontophoresis was performed for 1 h at 0.2 mA/cm^2."}, "[2]": {"test": "In vivo skin delivery: tape stripping (stratum corneum) and skin extraction (underlying skin)", "parameters": "species or system hairless rat", "source_text": "After wiping excess drug off the skin using a moist kimwipe, pre-weighed tape strips were placed on the area exposed to the drug and made sure they adhered to the skin by rolling with a glass rod for 30 seconds. After rolling, the tape strips were held from one end with a pair of forceps and ripped off the skin very quickly. The first strip was discarded to remove the remnants of the drug on the skin. This process was continued with 30 strips to fully remove the stratum corneum and each strip analyzed for drug content by immersing in 1 mL extraction buffer for 1 hr under gentle stirring (150 rpm). […] All tape strip extracts were analyzed with HPLC. […] TEWL values were also recorded after every five strips.\nAfter tape stripping, the rats were euthanized and the underlying skin excised. Before proceeding for skin extraction studies, the weight of the excised skin piece was recorded. This excised skin was minced into small pieces and placed into glass vials. To this minced skin, 1 mL deionised water was added and shaken for 30 minutes on a shaker. To this 100 μL of 0.1% HCl was added and centrifuged. To the centrifuged sample 6 mL of methylene chloride was added and shaken for 30 minutes. The methylene chloride (organic) extract was then evaporated under nitrogen. The methylene chloride addition and evaporation step was repeated and combined with the previous extraction. After evaporation, the samples were reconstituted using 1 mL of acetonitrile, filtered and filled in HPLC vials and analyzed accordingly. For TMCA, 30/70 chloroform and methanol was used as the extraction solvent. […] The measured drug levels from the skin were corrected for recovery.\nas §1\nHairless rats (n=4 per group) were anesthetized with ketamine (75 mg/kg) and xylazine (10 mg/kg) administered intraperitoneally. Once the rats were anaesthetized, the abdominal area was wiped with water and alcohol swabs. The cartridge loaded with the donor formulation was placed on the abdomen of each rat and connected to the power supply (Keithley Instruments, Cleveland, Ohio) for cathodal delivery. The counter electrode was placed around 3 cm away from the drug cartridge, and connected to the respective polarity of the power supply. The cartridge and the counter electrode were made sure to be in contact with the skin and a bandage was placed to prevent them from any further movement. Skin portion around the cartridge approximately 0.5 cm was marked for excision after the study to determine the lateral diffusion of the drug. Iontophoresis was conducted at a current density of 0.2 mA/cm^2 for 15 or 60 minutes. The donor cartridge was removed from the skin after iontophoresis and the skin was wiped with a moist kimwipe to remove any remaining drug on the skin. The skin was then tape stripped (30 strips) to remove the stratum corneum and the drug in the strips evaluated (with the first strip discarded for surface drug removal). The drug in the underlying skin was then extracted."}, "[3]": {"test": "Solubility in solubilizer solutions (shaken overnight, supernatant by HPLC)", "type": "physicochemical", "settings": "for solubility: solubilizer solution, thermodynamic from solid, read-out: Solubility, Final conc", "protocol": "Triamcinolone acetonide is poorly ionized and has a poor solubility profile; to overcome this, individual as well as combinations of potential solubilizers were tested. TMCA (2.5 mg) was mixed into 1 mL of the individual components or mixtures of potential solubilizers and shaken overnight; drug was then added to all clear solutions which were then mixed overnight. The samples were then centrifuged and the supernatants analyzed by HPLC to determine drug solubility.\nDEX-P (100 mg) was mixed into 1 mL of the individual components or mixtures of potential solubilizers and shaken overnight. Additional drug (100 mg) was added to clear solutions and mixed overnight. The samples were then centrifuged and the supernatants analyzed by HPLC to determine drug solubility."}, "[4]": {"settings": "cathodal 0.2 mA/cm2 for 15 minutes, FIG. 6B"}, "[5]": {"settings": "cathodal 0.2 mA/cm^2 for 60 minutes, FIG. 6A"}, "[6]": {"settings": "3.5 mg/ml, pH 5.0, anodal iontophoresis 0.2 mA/cm^2 for 1 h"}, "[7]": {"settings": "3.5 mg/ml, pH 5.0, passive delivery"}},
  "note": "Where two headings read alike, the source gives them in different places.",
  "data": [
    {"smiles": "C[C@@H]1C[C@H]2[C@@H]3CCC4=CC(=O)C=C[C@]4(C)[C@@]3(F)[C@@H](O)C[C@]2(C)[C@@]1(O)C(=O)COP(=O)(O)O", "note": "[DEX, dexamethasone sodium phosphate]", "values": [
      {"measurement": "permeation over time, 10 mg/mL", "setting": "[1]; 10 mg/mL in phosphate buffer pH 7.4, cathodal 0.2 mA/cm^2 for 1 hr, 24 hrs, FIG. 4", "result": "lower permeation over time compared to the higher drug concentrations"},
      {"measurement": "cumulative permeation over 24 hrs, iontophoresis", "setting": "[1]; 25 mg/mL in phosphate buffer pH 7.4, cathodal 0.4 mA/cm^2 for 1 hr, sampled 24 hrs, FIG. 2", "result": "increased quite rapidly during the initial several hours and continued to increase up to 24 hrs"},
      {"measurement": "cumulative permeation over 24 hrs, passive", "setting": "[1]; 25 mg/mL in phosphate buffer pH 7.4, passive delivery (no current), FIG. 2", "result": "initially low but gradual increase"},
      {"measurement": "permeation over time, 4 hr iontophoresis", "setting": "[1]; 25 mg/mL, pH 7.4, cathodal 0.4 mA/cm^2 for 4 hr, FIG. 3", "result": "highest permeation"},
      {"measurement": "cumulative permeation, cathodal vs anodal iontophoresis", "setting": "[1]; 25 mg/mL, cathodal in phosphate buffer pH 7.4 vs anodal in citrate buffer pH 3.5, 0.4 mA/cm^2 for 2 hours, sampled for 24 hrs, FIG. 1", "result": "significant improvement in permeation compared to anodal iontophoresis"},
      {"measurement": "permeation over time, 25 and 50 mg/mL", "setting": "[1]; 25 and 50 mg/mL in phosphate buffer pH 7.4, cathodal 0.2 mA/cm^2 for 1 hr, 24 hrs, FIG. 4", "result": "similar"},
      {"measurement": "drug level in the skin over time after iontophoresis (depot)", "setting": "[2]; 0.2 mA/cm2 for 15 minutes, measured 0, 24 and 48 hours after, FIG. 6C", "result": "decreased slowly over time and was detectable at 48 hrs after iontophoresis"},
      {"measurement": "initial drug level in stratum corneum, iontophoresis 15 min", "setting": "[2]; [4]", "result": "13.63 ± 2.4", "unit": "µg"},
      {"measurement": "initial drug level in underlying skin, iontophoresis 15 min", "setting": "[2]; [4]", "result": "1.70 ± 1.70", "unit": "µg"},
      {"measurement": "amount in stratum corneum, iontophoresis 60 min", "setting": "[2]; [5]", "result": "23.70 ± 6.19", "unit": "µg"},
      {"measurement": "amount in underlying skin, iontophoresis 60 min", "setting": "[2]; [5]", "result": "2.18 ± 0.69", "unit": "µg"},
      {"measurement": "localization of drug in skin, passive", "setting": "[2]; passive group, 60 minutes", "result": "all of the drug was localized in the stratum corneum layer"},
      {"measurement": "total delivered into skin, iontophoresis", "setting": "[2]; phosphate buffer pH 7.4, cathodal 0.2 mA/cm^2 for 60 minutes, immediately after, FIG. 6A", "result": "25.88 ± 5.91", "unit": "µg"},
      {"measurement": "total delivered into skin, passive", "setting": "[2]; phosphate buffer pH 7.4, passive treatment 60 minutes, FIG. 6A", "result": "13.31 ± 2.69", "unit": "µg"},
      {"measurement": "drug in peripheral skin areas outside the contact area (lateral diffusion)", "setting": "[2]; skin about 0.5 cm around the cartridge", "result": "No drug was detected"},
      {"measurement": "solubility", "setting": "[3]; aqueous buffer, Phosphate buffer", "result": 70000, "unit": "µg/mL"},
      {"measurement": "solubility", "setting": "[3]; aqueous with cosolvent or surfactant or cyclodextrin, 15% ethanol (95%), 20% PEG400, 20% glycerin, in phosphate buffer (w/w)", "result": 156000, "unit": "µg/mL"},
      {"measurement": "solubility", "setting": "[3]; aqueous with cosolvent or surfactant or cyclodextrin, 15% ethanol (95%), 30% PEG400, 20% glycerin, in phosphate buffer (w/w)", "result": 197000, "unit": "µg/mL"}
    ]},
    {"smiles": "CC1(C)O[C@@H]2C[C@H]3[C@@H]4CCC5=CC(=O)C=C[C@]5(C)[C@@]4(F)[C@@H](O)C[C@]3(C)[C@]2(C(=O)CO)O1", "note": "[TMCA, triamcinolone acetonide]", "values": [
      {"measurement": "levels in the receptor chamber", "setting": "[1]; 3.5 mg/ml in 15% cremophor RH40, 25% PEG 400, 25% ethanol, citrate buffer pH 5.0, with or without anodal iontophoresis 0.2 mA/cm^2 for 1 h", "result": "No detectable levels"},
      {"measurement": "amount deposited in the underlying skin after tape stripping, iontophoresis", "setting": "[2]; [6]", "result": "1.15 ± 0.32", "unit": "µg"},
      {"measurement": "amount in the stratum corneum, iontophoresis", "setting": "[2]; [6]", "result": "16.43 ± 1.99", "unit": "µg"},
      {"measurement": "amount deposited in the underlying skin after tape stripping, passive", "setting": "[2]; [7]", "result": "0.34 ± 0.08", "unit": "µg"},
      {"measurement": "amount in the stratum corneum, passive", "setting": "[2]; [7]", "result": "19.66 ± 1.35", "unit": "µg"},
      {"measurement": "Solubility, Final conc", "setting": "[3]; 15% cremophor, 25% ethanol, 25% PEG 400 (w/w)", "result": 4420, "unit": "µg/mL"},
      {"measurement": "Solubility, Final conc", "setting": "[3]; 15% cremophor, 25% ethanol, 25% PEG 3350 (w/w)", "result": 1980, "unit": "µg/mL"},
      {"measurement": "solubility", "setting": "[3]; aqueous with cosolvent or surfactant or cyclodextrin, 5% tween 80 (w/w)", "result": 120, "unit": "µg/mL"},
      {"measurement": "solubility", "setting": "[3]; aqueous with cosolvent or surfactant or cyclodextrin, 15% cremophor (w/w)", "result": 480, "unit": "µg/mL"},
      {"measurement": "solubility", "setting": "[3]; aqueous with cosolvent or surfactant or cyclodextrin, 15% cremophor, 25% ethanol (w/w)", "result": 1380, "unit": "µg/mL"},
      {"measurement": "solubility", "setting": "[3]; aqueous with cosolvent or surfactant or cyclodextrin, 15% cremophor, 25% ethanol, 25% glycerin (w/w)", "result": 2430, "unit": "µg/mL"},
      {"measurement": "solubility", "setting": "[3]; aqueous with cosolvent or surfactant or cyclodextrin, 15% cremophor, 50% PEG 400 (w/w)", "result": 1240, "unit": "µg/mL"},
      {"measurement": "solubility", "setting": "[3]; aqueous with cosolvent or surfactant or cyclodextrin, 15% cremophor, 50% glycerin (w/w)", "result": 1180, "unit": "µg/mL"},
      {"measurement": "solubility", "setting": "[3]; aqueous with cosolvent or surfactant or cyclodextrin, 25% PEG 400 (w/w)", "result": 70, "unit": "µg/mL"},
      {"measurement": "solubility", "setting": "[3]; aqueous with cosolvent or surfactant or cyclodextrin, 25% PEG 3350 (w/w)", "result": 80, "unit": "µg/mL"},
      {"measurement": "solubility", "setting": "[3]; aqueous with cosolvent or surfactant or cyclodextrin, 25% Propylene glycol (w/w)", "result": 60, "unit": "µg/mL"},
      {"measurement": "solubility", "setting": "[3]; aqueous with cosolvent or surfactant or cyclodextrin, 25% ethanol (w/w)", "result": 230, "unit": "µg/mL"},
      {"measurement": "solubility", "setting": "[3]; aqueous with cosolvent or surfactant or cyclodextrin, 25% glycerin (w/w)", "result": 30, "unit": "µg/mL"}
    ]}
  ]
}
